Experimental findings from patent US20240262826A1, “WILD TYPE KIT INHIBITORS” (Blueprint Medicines Corporation, priority 2022, published 2024) are described below.

The test has as its target wild type c-kit (Homo sapiens (Human), UniProt P10721). The test is described as follows: MSD Phospho c-Kit (Tyr721) Assay Whole Cell Lysate Kit in SCF-stimulated M-07e cells (pKIT assay, marked *). In kind it is cell-based. The conditions noted are these: Meso Scale Discovery (MSD) assay (values marked *). The method, then:
The ability of compounds of the disclosure (described herein as test compounds) to inhibit autophosphorylation of wild type c-kit was measures using either a PathScan phospho c-kit (Tyr719) sandwich ELISA (CST #7298) or a Phospho c-Kit (Tyr721) Assay Whole Cell Lysate Kit (MSD: 515DPD/catalog number K15119D-2).
For the MSD Phospho c-Kit (Tyr721) Assay Whole Cell Lysate Kit: M-07e cells were maintained in Iscove's Modified Dulbecco's Medium (IMDM) media supplemented with 10% FBS, 5 ng/ml granulocyte-macrophage colony-stimulating factor (GM-CSF) and 100 units/mL Penicillin-Streptomycin, and grown in a 37° C., 5% CO2 in a humidified tissue culture incubator. M-07e cells were washed with phenol red-free, serum-free, GM-CSF-free IMDM and seeded in the same media at 100,000 cells well in a volume of 50 ul in a 96-well U-bottom plate. The cells were incubated for 4 hours, followed by the addition of test compound at a final DMSO concentration of 0.25% for 60 min at 37° C. to generate an 8-point dose concentration series of test compounds. The cells were stimulated with 50 ng/ml human SCF for 10 min at room temperature. Cells were then lysed by the addition of 16.5 ul of PerkinElmer 5× AlphaLISA Lysis Buffer supplemented with Cell Signaling Technologies protease/phosphatase inhibitor. Lysis was encouraged by shaking at 4° C. for 30 minutes.
25 ul of lysate was transferred to the MSD plate and the plate was shaken at 700 rpm at room temperature for one hour, followed by washing 3 times with Tris wash buffer. Next, 25 ul of detection antibody solution (diluted from 50× stock in antibody dilution buffer) was added. After shaking at 700 rpm at room temperature for one hour, the plate was washed 3 times with Tris wash buffer. The plate was then read on MSD Sector Imager immediately after 150 ul of reading buffer added to each well.
An IC50 was calculated using a 4-parameter logistic nonlinear regression.

wild type c-kit, sequence (P10721 26-976): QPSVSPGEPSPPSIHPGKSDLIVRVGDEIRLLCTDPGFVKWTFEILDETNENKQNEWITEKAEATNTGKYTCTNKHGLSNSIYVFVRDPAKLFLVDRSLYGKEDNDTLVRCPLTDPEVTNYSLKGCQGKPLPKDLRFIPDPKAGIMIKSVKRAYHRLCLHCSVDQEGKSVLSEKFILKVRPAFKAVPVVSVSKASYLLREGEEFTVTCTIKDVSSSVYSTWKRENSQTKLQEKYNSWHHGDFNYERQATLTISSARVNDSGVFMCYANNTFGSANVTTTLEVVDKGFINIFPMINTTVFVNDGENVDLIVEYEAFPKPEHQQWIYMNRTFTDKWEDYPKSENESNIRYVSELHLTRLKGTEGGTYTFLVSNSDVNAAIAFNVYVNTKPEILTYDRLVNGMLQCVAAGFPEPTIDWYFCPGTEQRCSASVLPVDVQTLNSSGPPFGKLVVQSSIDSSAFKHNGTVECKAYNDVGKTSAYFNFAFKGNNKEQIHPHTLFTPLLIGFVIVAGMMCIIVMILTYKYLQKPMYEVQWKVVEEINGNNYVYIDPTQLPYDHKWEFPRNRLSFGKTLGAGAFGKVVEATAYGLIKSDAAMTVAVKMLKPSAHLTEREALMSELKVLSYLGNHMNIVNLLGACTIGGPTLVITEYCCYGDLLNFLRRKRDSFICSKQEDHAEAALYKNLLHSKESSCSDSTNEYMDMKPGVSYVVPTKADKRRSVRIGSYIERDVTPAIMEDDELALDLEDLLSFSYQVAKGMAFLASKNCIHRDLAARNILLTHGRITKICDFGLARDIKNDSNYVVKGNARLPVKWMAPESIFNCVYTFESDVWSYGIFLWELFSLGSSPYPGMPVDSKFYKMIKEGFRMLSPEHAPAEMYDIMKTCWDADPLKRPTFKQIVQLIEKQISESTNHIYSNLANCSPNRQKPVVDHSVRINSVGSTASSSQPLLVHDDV

The term IC50 denotes the midpoint of a concentration-inhibition curve. Turning to `Cc1ccc(-c2nnn(C3CCC3)n2)cc1NC(=O)c1cnn2ccccc12` [Example 8, N-(5-(2-cyclobutyl-2H-tetrazol-5-yl)-2-methylphenyl)pyrazolo[1,5-a]pyridine-3-carboxamide], inhibition was half-maximal at 2.7 nM (IC50).

Take `COC(=O)N1CC(c2nnn(-c3ccc(Cl)c(NC(=O)c4cnn5ccccc45)c3)n2)C1` [Example 194]: the IC50 came to 11.6 nM.

As to `Cc1ccc(-c2nnn(C3CC(F)C3)n2)cc1NC(=O)c1cnn2ccccc12` (stereo not drawn) [Example 32, N-(5-(2-(3-fluorocyclobutyl)-2H-tetrazol-5-yl)-2-methylphenyl)pyrazolo[1,5-a]pyridine-3-carboxamide], inhibition was half-maximal at 2.5 nM (IC50).

The compound `Cc1ccc(-c2nnn(Cc3ccccc3F)n2)cc1NC(=O)c1cnn2ccccc12` [Example 13, N-(5-(2-(2-fluorobenzyl)-2H-tetrazol-5-yl)-2-methylphenyl)pyrazolo[1,5-a]pyridine-3-carboxamide] came in with an IC50 of 1.6 nM.

Compound `CO[C@H]1C[C@@H](n2nnc(-c3ccc(C)c(NC(=O)c4cnn5ccccc45)c3)n2)C1` [Example 35, N-(5-(2-((1s,3s)-3-methoxycyclobutyl)-2H-tetrazol-5-yl)-2-methylphenyl)pyrazolo[1,5-a]pyridine-3-carboxamide] displayed an IC50 of 3.8 nM.

As for `Cc1ccc(-c2nnn(C(C)C3CCOCC3)n2)cc1NC(=O)c1cnn2ccccc12` (single isomer, unassigned) [Example 39, (R)-N-(2-methyl-5-(2-(1-(tetrahydro-2H-pyran-4-yl)ethyl)-2H-tetrazol-5-yl)phenyl)pyrazolo[1,5-a]pyridine-3-carboxamide or (S)-N-(2-methyl-5-(2-(1-(tetrahydro-2H-pyran-4-yl)ethyl)-2H-tetrazol-5-yl)phenyl)pyrazolo[1,5-a]pyridine-3-carboxamide], the IC50 was 9.1 nM.

Consider `Cc1ccc(-c2nnn(C3CC(F)(F)C3)n2)cc1NC(=O)c1cnn2ccc(N3CCOCC3)cc12` [Example 79, N-(5-(2-(3,3-difluorocyclobutyl)-2H-tetrazol-5-yl)-2-methylphenyl)-5-morpholinopyrazolo[1,5-a]pyridine-3-carboxamide], for which 3.9 nM corresponded to half-maximal inhibition (IC50).

For `Cc1ccc(-c2nnn(C3CN(S(=O)(=O)C(F)(F)F)C3)n2)cc1NC(=O)c1cnn2ccccc12` [Example 182], the IC50 came to 4 nM.

For the compound `Cc1ccc(-c2nnn([C@H]3C[C@@H](C(F)(F)F)C3)n2)cc1NC(=O)c1cnn2ccccc12` [Example 23, N-(2-methyl-5-(2-((1s,3s)-3-(trifluoromethyl)cyclobutyl)-2H-tetrazol-5-yl)phenyl)pyrazolo[1,5-a]pyridine-3-carboxamide or N-(2-methyl-5-(2-((1r,3r)-3-(trifluoromethyl)cyclobutyl)-2H-tetrazol-5-yl)phenyl)pyrazolo[1,5-a]pyridine-3-carboxamide], the IC50 is 2.6 nM.

In turn, `CS(=O)(=O)N1CC(c2nnn(-c3ccc(Cl)c(NC(=O)c4cnn5ccccc45)c3)n2)C1` [Example 187] yielded an IC50 of 6.2 nM.

`Cc1ccc(-c2nnn(CC34CC(F)(C3)C4)n2)cc1NC(=O)c1cnn2ccccc12` [Example 30, N-(5-(2-((3-fluorobicyclo[1.1.1]pentan-1-yl)methyl)-2H-tetrazol-5-yl)-2-methylphenyl)pyrazolo[1,5-a]pyridine-3-carboxamide] showed an IC50 of 2.7 nM.

`Cc1ccc(-c2nnn(CC[C@@](C)(O)C(F)(F)F)n2)cc1NC(=O)c1cnn2ccccc12` (single isomer, unassigned) [Example 41, (R)-N-(2-methyl-5-(2-(4,4,4-trifluoro-3-hydroxy-3-methylbutyl)-2H-tetrazol-5-yl)phenyl)pyrazolo[1,5-a]pyridine-3-carboxamide or (S)-N-(2-methyl-5-(2-(4,4,4-trifluoro-3-hydroxy-3-methylbutyl)-2H-tetrazol-5-yl)phenyl)pyrazolo[1,5-a]pyridine-3-carboxamide]: inhibition was half-maximal at 1.8 nM (IC50).

`Cc1ccc(-c2nnn(C3CC4(C3)CC4(F)F)n2)cc1NC(=O)c1cnn2ccccc12` (single isomer, unassigned) [Example 42, N-(5-(2-((3r,5r)-1,1-difluorospiro [2.3]hexan-5-yl)-2H-tetrazol-5-yl)-2-methylphenyl)pyrazolo[1,5-a]pyridine-3-carboxamide or N-(5-(2-((3s,5s)-1,1-difluorospiro[2.3]hexan-5-yl)-2H-tetrazol-5-yl)-2-methylphenyl)pyrazolo[1,5-a]pyridine-3-carboxamide] returned an IC50 of 3.8 nM.

The compound `Cc1ccc(-c2nnn(C[C@H]3CCCCO3)n2)cc1NC(=O)c1cnn2ccccc12` (single isomer, unassigned) [Example 40, (S)-N-(2-methyl-5-(2-((tetrahydro-2H-pyran-2-yl)methyl)-2H-tetrazol-5-yl)phenyl)pyrazolo[1,5-a]pyridine-3-carboxamide or (R)-N-(2-methyl-5-(2-((tetrahydro-2H-pyran-2-yl)methyl)-2H-tetrazol-5-yl)phenyl)pyrazolo[1,5-a]pyridine-3-carboxamide] displayed an IC50 of 3.1 nM.

The compound `Cc1ccc(-c2nnn(CC3CCOCC3)n2)cc1NC(=O)c1cnn2ccccc12` [Example 3, N-(2-methyl-5-(2-((tetrahydro-2H-pyran-4-yl)methyl)-2H-tetrazol-5-yl)phenyl)pyrazolo[1,5-a]pyridine-3-carboxamide] had an IC50 of 8.4 nM.

Compound `O=C(Nc1cc(-c2nnn(CCOCC(F)(F)F)n2)ccc1Cl)c1cnn2ccccc12` [Example 22, N-(2-chloro-5-(2-(2-(2,2,2-trifluoroethoxy)ethyl)-2H-tetrazol-5-yl)phenyl)pyrazolo[1,5-a]pyridine-3-carboxamide] showed an IC50 of 1.9 nM.

`Cc1ccc(-c2nnn(C3CC4(CCC4)C3)n2)cc1NC(=O)c1cnn2ccccc12` [Example 4, N-(2-methyl-5-(2-(spiro[3.3]heptan-2-yl)-2H-tetrazol-5-yl)phenyl)pyrazolo[1,5-a]pyridine-3-carboxamide] yielded an IC50 of 2.6 nM.

`Cc1ccc(-c2nnn([C@H]3C[C@H](C(F)(F)F)C3)n2)cc1NC(=O)c1cnn2ccccc12` [Example 24, N-(2-methyl-5-(2-((1r,3r)-3-(trifluoromethyl)cyclobutyl)-2H-tetrazol-5-yl)phenyl)pyrazolo[1,5-a]pyridine-3-carboxamide or N-(2-methyl-5-(2-((1s,3s)-3-(trifluoromethyl)cyclobutyl)-2H-tetrazol-5-yl)phenyl)pyrazolo[1,5-a]pyridine-3-carboxamide] yielded an IC50 of 2.1 nM.

Consider `Cc1ccc(-c2nnn(C[C@@H]3CC3(F)F)n2)cc1NC(=O)c1cnn2ccccc12` (single isomer, unassigned) [Example 25, (S)—N-(5-(2-((2,2-difluorocyclopropyl)methyl)-2H-tetrazol-5-yl)-2-methylphenyl)pyrazolo[1,5-a]pyridine-3-carboxamide or (R)—N-(5-(2-((2,2-difluorocyclopropyl)methyl)-2H-tetrazol-5-yl)-2-methylphenyl)pyrazolo[1,5-a]pyridine-3-carboxamide], for which the IC50 was 7.6 nM.

`Cc1ccc(-c2nnn([C@H](C)C3CC3)n2)cc1NC(=O)c1cnn2ccccc12` (single isomer, unassigned) [Example 37, (R)-N-(5-(2-(1-cyclopropylethyl)-2H-tetrazol-5-yl)-2-methylphenyl)pyrazolo[1,5-a]pyridine-3-carboxamide or (S)-N-(5-(2-(1-cyclopropylethyl)-2H-tetrazol-5-yl)-2-methylphenyl)pyrazolo[1,5-a]pyridine-3-carboxamide] returned an IC50 of 6.2 nM.

Regarding `Cc1ccc(-c2nnn([C@@H](C)c3ccccc3F)n2)cc1NC(=O)c1cnn2ccccc12` [Example 33, (S)-N-(5-(2-(1-(2-fluorophenyl)ethyl)-2H-tetrazol-5-yl)-2-methylphenyl)pyrazolo[1,5-a]pyridine-3-carboxamide], the IC50 came to 2.7 nM.

`Cc1ccc(-c2nnn(CC3CC3(F)F)n2)cc1NC(=O)c1cnn2ccccc12` (stereo not drawn) [Example 6, N-(5-(2-((2,2-difluorocyclopropyl)methyl)-2H-tetrazol-5-yl)-2-methylphenyl)pyrazolo[1,5-a]pyridine-3-carboxamide] displayed an IC50 of 4.5 nM.

`Cc1ccc(-c2nnn(C3CC(F)(F)C3)n2)cc1NC(=O)c1cnn2ccccc12` [Example 5, N-(5-(2-(3,3-difluorocyclobutyl)-2H-tetrazol-5-yl)-2-methylphenyl)pyrazolo[1,5-a]pyridine-3-carboxamide] displayed an IC50 of 5 nM.

Take `Cc1ccc(-c2nnn(C3CCOCC3)n2)cc1NC(=O)c1cnn2ccccc12` [Example 31, N-(2-methyl-5-(2-(tetrahydro-2H-pyran-4-yl)-2H-tetrazol-5-yl)phenyl)pyrazolo[1,5-a]pyridine-3-carboxamide]: the IC50 is 8.3 nM.
